{"source": "ChEMBL document CHEMBL3877305", "about": "“Improved Potency of Indole-Based NorA Efflux Pump Inhibitors: From Serendipity toward Rational Design and Development” (J Med Chem, 2017)", "key": {"[1]": {"target": "T1, Quinolone resistance protein NorA (Staphylococcus aureus) (UniProt P0A0J7)", "T1 sequence (whole entry)": "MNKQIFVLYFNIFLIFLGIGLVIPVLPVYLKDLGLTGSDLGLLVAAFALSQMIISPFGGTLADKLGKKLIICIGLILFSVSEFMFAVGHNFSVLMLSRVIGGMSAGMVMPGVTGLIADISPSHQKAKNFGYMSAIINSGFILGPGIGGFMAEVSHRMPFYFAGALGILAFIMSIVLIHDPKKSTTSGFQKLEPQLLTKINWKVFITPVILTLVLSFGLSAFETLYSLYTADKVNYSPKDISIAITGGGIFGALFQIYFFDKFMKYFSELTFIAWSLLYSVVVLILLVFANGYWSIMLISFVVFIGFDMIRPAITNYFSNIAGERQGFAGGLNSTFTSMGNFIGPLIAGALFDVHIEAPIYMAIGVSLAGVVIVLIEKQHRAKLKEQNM", "test": "Inhibition of Staphylococcus aureus 1199B NorA assessed as inhibition of ethidium bromide efflux at 50 uM measured after 5 mins by fluorometric method relative to control"}, "[2]": {"tested_on": "Staphylococcus aureus", "test": "Antibacterial activity against Staphylococcus aureus 1199B by microdilution method", "type": "functional"}, "[3]": {"target": "T1, Quinolone resistance protein NorA (Staphylococcus aureus)", "test": "Inhibition of Staphylococcus aureus 1199B NorA assessed as potentiation of ciprofloxacin-induced antibacterial activity by checkerboard assay"}, "[4]": {"target": "T2, Quinolone resistance protein NorA (Staphylococcus aureus, UniProt P0A0J7)", "T2 sequence (P0A0J7 whole entry)": "T1 sequence (whole entry)", "test": "Inhibition of Staphylococcus aureus 1199B NorA assessed as inhibition of ethidium bromide efflux measured after 5 mins by fluorometric method"}, "[5]": {"test": "Dissociation constant, pKa of the compound", "type": "physicochemical"}, "[6]": {"test": "Solubility in D2O solution at 25 degC by 1H NMR analysis", "type": "physicochemical"}, "[7]": {"test": "Metabolic stability in human liver microsomes at 10 uM preincubated for 10 mins followed by NADPH addition measured after 30 mins by HPLC-MS/MS method", "type": "ADME", "settings": "0.5 h"}}}
{"compound": "CCOC(=O)c1c(C)n(Cc2ccccc2)c2ccc(OCCCN3CCN(CCCOc4ccc(F)cc4)CC3)cc12", "values": [{"measurement": "inhibition", "setting": "[1]", "value": 53.7, "unit": "%"}]}
{"compound": "CCOC(=O)c1c(C)n(Cc2ccccc2)c2ccc(OCCNCc3ccc(Oc4nnnn4-c4ccccc4)c(OC)c3)cc12", "values": [{"measurement": "inhibition", "setting": "[1]", "value": 50.3, "unit": "%"}]}
{"compound": "CCOC(=O)c1c(C)n(Cc2ccccc2)c2ccc(OCCCNCc3ccccc3)cc12", "values": [{"measurement": "MIC", "setting": "[2]", "value": "> 100", "unit": "µg/mL"}]}
{"compound": "CCOC(=O)c1c(C)n(Cc2ccccc2)c2ccc(OCCCN3CCCCC3)cc12", "values": [{"measurement": "MIC", "setting": "[2]", "value": "> 100", "unit": "µg/mL"}, {"measurement": "fractional inhibitory concentration index (FICI)", "setting": "[3]", "value": 0.28}]}
{"compound": "CCOC(=O)c1c(C)n(Cc2ccccc2)c2ccc(OCC(O)CNCc3ccc(Oc4nnnn4-c4ccccc4)c(OC)c3)cc12", "note": "(stereo not given)", "values": [{"measurement": "inhibition", "setting": "[1]", "value": 96.9, "unit": "%"}, {"measurement": "MIC", "setting": "[2]", "value": "> 100", "unit": "µg/mL"}, {"measurement": "IC50", "setting": "[4]", "value": 4.93, "unit": "µM"}, {"measurement": "fractional inhibitory concentration index (FICI)", "setting": "[3]", "value": 0.13}]}
{"compound": "CCOC(=O)c1c(C)n(Cc2ccccc2)c2ccc(OCCCNCc3ccc(Oc4nnnn4-c4ccccc4)c(OC)c3)cc12", "values": [{"measurement": "inhibition", "setting": "[1]", "value": "95 to 96.5", "unit": "%"}, {"measurement": "MIC", "setting": "[2]", "value": "> 100", "unit": "µg/mL"}, {"measurement": "IC50", "setting": "[4]", "value": "1.8 to 1.82", "unit": "µM"}, {"measurement": "pKa", "setting": "[5]", "value": 7.21}, {"measurement": "solubility", "setting": "[6]", "value": "< 2", "unit": "µM"}, {"measurement": "Stability", "setting": "[7]", "value": "Stable"}, {"measurement": "fractional inhibitory concentration index (FICI)", "setting": "[3]", "value": 0.27}]}
{"compound": "CCOC(=O)c1c(C)n(Cc2ccccc2)c2ccc(OCCCNCc3ccc(F)c(OC)c3)cc12", "values": [{"measurement": "inhibition", "setting": "[1]", "value": 67, "unit": "%"}, {"measurement": "MIC", "setting": "[2]", "value": 6.3, "unit": "µg/mL"}, {"measurement": "IC50", "setting": "[4]", "value": 3.83, "unit": "µM"}]}
{"compound": "CCOC(=O)c1c(C)n(Cc2ccccc2)c2ccc(OCCN3CCN(CCCOc4ccccc4-c4ccccc4)CC3)cc12", "values": [{"measurement": "inhibition", "setting": "[1]", "value": 27.1, "unit": "%"}]}
{"compound": "COc1cc(CNCCO)ccc1Oc1nnnn1-c1ccccc1", "values": [{"measurement": "inhibition", "setting": "[1]", "value": "< 10", "unit": "%"}]}
{"compound": "CCOC(=O)c1c(C)n(Cc2ccccc2)c2ccc(OCCCN3CCN(CCCOc4ccccc4-c4ccccc4)CC3)cc12", "values": [{"measurement": "inhibition", "setting": "[1]", "value": 12.1, "unit": "%"}]}
{"compound": "CCOC(=O)c1c(C)n(Cc2ccccc2)c2ccc(OCCCCNCc3ccc(Oc4nnnn4-c4ccccc4)c(OC)c3)cc12", "values": [{"measurement": "inhibition", "setting": "[1]", "value": 101, "unit": "%"}, {"measurement": "MIC", "setting": "[2]", "value": "> 100", "unit": "µg/mL"}, {"measurement": "IC50", "setting": "[4]", "value": 2.02, "unit": "µM"}, {"measurement": "pKa", "setting": "[5]", "value": 8.2}, {"measurement": "solubility", "setting": "[6]", "value": "< 2", "unit": "µM"}, {"measurement": "Stability", "setting": "[7]", "value": "Stable"}, {"measurement": "fractional inhibitory concentration index (FICI)", "setting": "[3]", "value": 0.25}]}
{"compound": "CCOC(=O)c1c(C)n(Cc2ccccc2)c2ccc(OCCCN)cc12", "values": [{"measurement": "MIC", "setting": "[2]", "value": "> 100", "unit": "µg/mL"}]}
{"compound": "CCOC(=O)c1c(C)n(Cc2ccccc2)c2ccc(OCCN3CCN(CCOc4ccccc4-c4ccccc4)CC3)cc12", "values": [{"measurement": "inhibition", "setting": "[1]", "value": "24.3 to 50", "unit": "%"}]}
{"compound": "CCOC(=O)c1c(C)n(Cc2ccccc2)c2ccc(OCC(O)CNCC(O)COc3ccc4c(c3)c(C(=O)OCC)c(C)n4Cc3ccccc3)cc12", "note": "(stereo not given)", "values": [{"measurement": "inhibition", "setting": "[1]", "value": "78 to 100", "unit": "%"}, {"measurement": "IC50", "setting": "[4]", "value": 19.9, "unit": "µM"}]}
{"compound": "OCCCN1CCN(CCCOc2ccccc2-c2ccccc2)CC1", "values": [{"measurement": "inhibition", "setting": "[1]", "value": "< 10", "unit": "%"}]}
{"compound": "CCOC(=O)c1c(C)n(Cc2ccccc2)c2ccc(OCCCNCc3nnnn3-c3ccccc3)cc12", "values": [{"measurement": "inhibition", "setting": "[1]", "value": 22.8, "unit": "%"}]}
